Among the data in patent publication US10829500B2, “Pyridyl-triazabicycles” (Hoffmann-La Roche Inc., priority 2014, dated 2020) are IC50 values, retold here.

BACE1, sequence (P56817 46-501): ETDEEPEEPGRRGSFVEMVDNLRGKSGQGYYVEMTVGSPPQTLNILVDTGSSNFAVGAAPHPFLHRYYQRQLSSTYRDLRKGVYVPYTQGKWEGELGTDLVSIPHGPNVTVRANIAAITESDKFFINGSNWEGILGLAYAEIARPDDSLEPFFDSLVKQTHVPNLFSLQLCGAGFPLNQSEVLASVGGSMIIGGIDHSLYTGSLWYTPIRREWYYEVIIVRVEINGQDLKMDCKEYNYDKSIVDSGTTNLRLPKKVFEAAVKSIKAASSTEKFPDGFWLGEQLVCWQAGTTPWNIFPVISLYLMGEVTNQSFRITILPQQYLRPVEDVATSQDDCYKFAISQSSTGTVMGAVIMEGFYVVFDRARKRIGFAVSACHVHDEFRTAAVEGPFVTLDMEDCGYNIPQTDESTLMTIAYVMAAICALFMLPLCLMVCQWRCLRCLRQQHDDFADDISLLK

In this test the target is BACE1 (Homo sapiens (Human), UniProt P56817). In words: Cellular Aβ-lowering assay (Abeta 40 AlphaLISA) in HEK293 APP cells. It is filed as cell-based. Particulars: Aβ 40 in culture supernatant after 18-20 hrs incubation. How it is done: Cellular Aβ-Lowering Assay:
The Abeta 40 AlphaLISA Assay can be used. The HEK293 APP cells were seeded in 96 well Microtiter plates in cell culture medium (Iscove's, plus 10% (v/v) fetal bovine serum, penicillin/streptomycin) to about 80% confluency and the compounds were added at a 3× concentration in ⅓ volume of culture medium (final DMSO concentration was kept at 1% v/v). After 18-20 hrs incubation at 37° C. and 5% CO2 in a humidified incubator, the culture supernatants were harvested for the determination of Aβ 40 concentrations using Perkin-Elmer Human Amyloid beta 1-40 (high specificity) Kit (Cat # AL275C).
In a Perkin-Elmer White Optiplate-384 (Cat #6007290), 2 ul culture supernatants were combined with 2 μl of a 10× AlphaLISA Anti-hAβAcceptor beads+Biotinylated Antibody Anti-Aβ 1-40 Mix (50 μg/mL/5 nM). After 1 hour room temperature incubation, 16 μl of a 1.25× preparation of Streptavidin (SA) Donor beads (25 μg/mL) were added and incubated for 30 minutes in the Dark. Light Emission at 615 nm was then recorded using EnVision-Alpha Reader. Levels of A β 40 in the culture supernatants were calculated as percentage of maximum signal (cells treated with 1% DMSO without inhibitor). The IC50 values were calculated using the Excel XLfit software.
For orientation: In Alpha technology, singlet oxygen from a donor bead excites a nearby acceptor bead.
Broadly, the IC50 is the concentration that inhibits the measured activity by half. The low end stands for higher potency, the high end for lower potency. `N#Cc1ccc(C(=O)Nc2ccc(F)c([C@]3(CF)C[S@@]4(=O)=NCCCCN4C(N)=N3)n2)nc1` [Example 5, N-[6[(1R,10S)-8-Amino-10-(fluoromethyl)-1-oxo-1λ^6-thia-2,7,9-triazabicyclo[5.4.0]undeca-1,8-dien-10-yl]-5-fluoropyridin-2-yl]-5-cyanopyridine-2-carboxamide] yielded an IC50 of 28 nM. This lies in the double-digit nanomolar range.

In the case of `N#Cc1ccc(C(=O)Nc2ccc(F)c([C@]3(CF)C[S@]4(=O)=NCCCCN4C(N)=N3)n2)nc1` [Example 4, N-[6-[(1S,10S)-8-Amino-10-(fluoromethyl)-1-oxo-1λ^6-thia-2,7,9-triazabicyclo[5.4.0]undeca-1,8-dien-10-yl]-5-fluoropyridin-2-yl]-5-cyanopyridine-2-carboxamide], it took 96 nM to reach half-maximal inhibition (IC50).

The molecule `C[C@@]1(c2nc(NC(=O)c3ccc(C#N)cn3)ccc2F)CS2(=O)=NCCCCN2C(N)=N1` (stereo in doubt) [Example 2, 5-Cyano-pyridine-2-carboxylic acid [6-((3R,4aS)-1-amino-3-methyl-4a-oxo-3,4,6,7,8,9-hexahydro-4aλ^6-thia-2,5,9a-triaza-benzocyclohepten-3-yl)-5-fluoro-pyridin-2-yl]-amide] had an IC50 of 49 nM. Compared with the last molecule, the IC50 is about 2-fold lower.

The molecule `C[C@@]1(c2nc(NC(=O)c3ccc(C#N)cn3)ccc2F)CS2(=O)=NCCCCN2C(N)=N1` (stereo in doubt) [Example 1, 5-Cyano-pyridine-2-carboxylic acid [6-((3R,4aR)-1-amino-3-methyl-4a-oxo-3,4,6,7,8,9-hexahydro-4aλ^6-thia-2,5,9a-triaza-benzocyclohepten-3-yl)-5-fluoro-pyridin-2-yl]-amide] gave an IC50 of 86 nM.

For the molecule `Cc1cc(C#N)cnc1C(=O)Nc1ccc(F)c([C@]2(C)C[S@@]3(=O)=NCCCCN3C(N)=N2)n1` [Example 3], the IC50 turned out to be 36 nM.
